# Source: US20060069132A1, “Azolecarboxamide herbicides” (priority 2004, published 2006)
# Key:
# [1] = test system: johnsongrass; assay: Test C pre-/postemergence herbicide test; format: in vivo, Sorghum halepense
# Summary of the method: (§1)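 Emerged plants at the 1- to 4-leaf stage (2–18 cm), or freshly planted seeds, received test chemicals in a non-phytotoxic solvent mixture with surfactant. Response was visually scored against controls after 12 to 14 days in the greenhouse, on a 0 (no effect) to 100 (complete control) scale.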
# [2] = test system: bermudagrass; assay: Test C pre-/postemergence herbicide test; format: in vivo, Cynodon dactylon; details: for Bermudagrass plant response rating: Preemergence, 500 g ai/ha
# Summary of the method: as §1
# [3] = test system: morningglory; assay: Test A pre-/postemergence herbicide test; format: in vivo, Ipomoea spp.
# Summary of the method: (§2)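 Both application timings were run together: directed soil spray over freshly planted seeds in sandy loam, and runoff spray onto 2–10 cm seedlings. Evaluation after ~10 days in greenhouse used a 0–100 visual scale versus untreated controls.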
# [4] = test system: velvetleaf; assay: Test C pre-/postemergence herbicide test; format: in vivo, Abutilon theophrasti
# Summary of the method: as §1
# [5] = test system: ducksalad; assay: Test C flooded paddy test; format: in vivo, Heteranthera limosa; details: for Plant response rating, Ducksalad: 500 g ai/ha, visual rating after 12 to 14 days
# [6] = test system: goosegrass; assay: Test C pre-/postemergence herbicide test; format: in vivo, Eleusine indica
# Summary of the method: as §1
# [7] = test system: barnyardgrass; assay: Test A pre-/postemergence herbicide test; format: in vivo, Echinochloa crus-galli
# Summary of the method: as §2
# [8] = test system: corn; assay: Test C pre-/postemergence herbicide test; format: in vivo, Zea mays; details: for Corn plant response rating: 500 g ai/ha
# Summary of the method: as §1
# [9] = test system: soybean; assay: Test C pre-/postemergence herbicide test; format: in vivo, Glycine max
# Summary of the method: as §1
# [10] = test system: rice; assay: Test C flooded paddy test; format: in vivo, Oryza sativa; details: for Plant response rating, Rice: 500 g ai/ha, visual rating after 12 to 14 days
# Summary of the method: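 Plants were grown to the 1- to 4-leaf stage (2–18 cm) and then treated postemergence, or grown to the 2-leaf stage for the flooded paddy test. They were held in a greenhouse for 12 to 14 days and then scored by eye against controls, where 0 is no effect and 100 is complete control.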
# [11] = test system: cocklebur; assay: Test C pre-/postemergence herbicide test; format: in vivo, Xanthium strumarium; details: for Cocklebur plant response rating: 500 g ai/ha
# Summary of the method: as §1
# [12] = test system: smallflower umbrella sedge; assay: Test C flooded paddy test; format: in vivo, Cyperus difformis; details: for Plant response rating, Sedge, Umbrella: 500 g ai/ha, visual rating after 12 to 14 days
# [13] = test system: velvetleaf; assay: Test A pre-/postemergence herbicide test; format: in vivo, Abutilon theophrasti
# Summary of the method: as §2
# [14] = 125 g ai/ha, scale 0 (no effect) to 100 (complete control), visual, 12 to 14 days, preemergence
# [15] = Postemergence, 500 g ai/ha, scale 0 to 100
# [16] = Postemergence, 250 g ai/ha, scale 0 to 100, 0 no effect, 100 complete control
# [17] = Preemergence, 500 g ai/ha, scale 0 to 100, 0 no effect, 100 complete control
# [18] = postemergence, 125 g ai/ha, scale 0 to 100
# [19] = postemergence, 62 g ai/ha, scale 0 to 100
# [20] = 250 g ai/ha, scale 0 to 100 (0 no effect, 100 complete control), visual, 12 to 14 days, preemergence
# [21] = scale 0 to 100, 0 no effect, 100 complete control
# [22] = Postemergence, 500 g ai/ha, 0 to 100 scale, 0 no effect, 100 complete control
# [23] = Postemergence, 2000 g ai/ha, 0 to 100 scale, 0 no effect, 100 complete control
# [24] = Preemergence, 500 g ai/ha, visual rating, 0 to 100 scale (0 no effect, 100 complete control)
# [25] = Preemergence, 2000 g ai/ha, visual rating, 0 to 100 scale (0 no effect, 100 complete control)
# [26] = 62 g ai/ha, scale 0 to 100 (0 no effect, 100 complete control)
# [27] = 125 g ai/ha, scale 0 to 100 (0 no effect, 100 complete control)
# [28] = 250 g ai/ha, scale of 0 to 100, 0 is no effect, 100 is complete control
# [29] = scale 0 to 100 (0 no effect, 100 complete control)
# [30] = Preemergence, scale 0 to 100, 0 no effect, 100 complete control
# [31] = preemergence, 500 g ai/ha, visual injury, 0 to 100 scale (0 no effect, 100 complete control)
# [32] = 62 g ai/ha, preemergence, scale 0 to 100
# [33] = 250 g ai/ha, scale 0-100, preemergence
# [34] = 500 g ai/ha, scale 0 to 100 (0 no effect, 100 complete control), visual, 12 to 14 days, preemergence
structure (smiles),measurement,setting,value
CCn1nc(C(C)(C)C)cc1C(=O)Nc1cccc(C(=O)NC2CC2)n1 [Compound 146],"Plant response rating, Johnsongrass",[1]; [14],30
same,Johnsongrass plant response rating,[1]; [15],0
same,"Plant response rating, Johnsongrass",[1]; [16],0
same,Johnsongrass plant response rating,[1]; [17],70
same,"Plant response rating, Johnsongrass",[1]; [18],0
same,"Plant response rating, Johnsongrass",[1]; [19],0
same,"Plant response rating (0 = no effect, 100 = complete control), Bermudagrass","[2]; 62 g ai/ha, preemergence",10
same,"Plant response rating, Bermudagrass",[2]; [14],60
same,"Plant response rating, Bermudagrass",[2]; [20],70
same,"Plant response rating, Bermudagrass",[2]; [16],0
same,Bermudagrass plant response rating,[2]; [21],90
same,Morningglory plant response rating,[3]; [22],5
same,"Plant response rating, Morningglory",[3]; [23],0
same,Morningglory plant response rating,[3]; [24],5
same,Morningglory plant response rating,[3]; [25],50
same,"Plant response rating, Velvetleaf",[4]; [14],40
same,Velvetleaf plant response rating,[4]; [15],40
same,"Plant response rating, Velvetleaf",[4]; [16],40
same,Velvetleaf plant response rating,[4]; [17],100
same,"Plant response rating, Velvetleaf",[4]; [18],35
same,"Plant response rating, Velvetleaf",[4]; [19],30
same,Ducksalad plant response rating,[5]; [26],0
same,Ducksalad plant response rating,[5]; [27],0
same,Ducksalad plant response rating,[5]; [28],20
same,"Plant response rating, Ducksalad",[5]; [29],20
same,"Plant response rating (0 = no effect, 100 = complete control), Goosegrass","[6]; 62 g ai/ha, preemergence",0
same,"Plant response rating, Goosegrass",[6]; [14],0
same,Goosegrass plant response rating,[6]; [15],0
same,"Plant response rating, Goosegrass",[6]; [16],0
same,Goosegrass plant response rating,[6]; [17],60
same,"Plant response rating, Goosegrass",[6]; [18],0
same,"Plant response rating, Goosegrass",[6]; [19],0
same,Barnyardgrass plant response rating,[7]; [22],50
same,"Plant response rating, Barnyardgrass",[7]; [23],75
same,Barnyardgrass plant response rating,[7]; [24],70
same,Barnyardgrass plant response rating,[7]; [25],80
same,"Plant response rating (0 = no effect, 100 = complete control), Corn","[8]; 62 g ai/ha, preemergence",0
same,"Plant response rating, Corn",[8]; [14],0
same,"Plant response rating, Corn",[8]; [20],10
same,Corn plant response rating,"[8]; Postemergence, scale 0 to 100",30
same,"Plant response rating, Corn",[8]; [16],10
same,Corn plant response rating,[8]; [30],30
same,"Plant response rating, Corn",[8]; [18],5
same,"Plant response rating, Corn",[8]; [19],5
same,"Plant response rating (0 = no effect, 100 = complete control), Soybean","[9]; 62 g ai/ha, preemergence",0
same,"Plant response rating, Soybean",[9]; [14],0
same,Soybean plant response rating,[9]; [15],80
same,"Plant response rating, Soybean",[9]; [16],30
same,Soybean plant response rating,[9]; [17],0
same,"Plant response rating, Soybean",[9]; [18],20
same,"Plant response rating, Soybean",[9]; [19],20
same,Rice plant response rating,[10]; [26],0
same,Rice plant response rating,[10]; [27],0
same,Rice plant response rating,[10]; [28],0
same,"Plant response rating, Rice",[10]; [29],20
same,"Plant response rating (0 = no effect, 100 = complete control), Cocklebur","[11]; 62 g ai/ha, preemergence",0
same,"Plant response rating, Cocklebur",[11]; [14],0
same,"Plant response rating, Cocklebur",[11]; [20],0
same,Cocklebur plant response rating,"[11]; Postemergence, scale 0 to 100",20
same,"Plant response rating, Cocklebur",[11]; [16],10
same,Cocklebur plant response rating,[11]; [30],0
same,"Plant response rating, Cocklebur",[11]; [18],5
same,"Plant response rating, Cocklebur",[11]; [19],5
same,"Sedge, Umbrella plant response rating",[12]; [26],60
same,"Sedge, Umbrella plant response rating",[12]; [27],80
same,"Sedge, Umbrella plant response rating",[12]; [28],90
same,"Plant response rating, Sedge, Umbrella",[12]; [29],90
same,Velvetleaf plant response rating,[13]; [22],20
same,"Plant response rating, Velvetleaf",[13]; [23],35
same,Velvetleaf plant response rating,[13]; [25],25
same,Velvetleaf plant response rating,[13]; [31],20
CCn1nc(C(C)(C)C)cc1C(=O)Nc1cncc(C(=O)N(C)C)n1 [Compound 287],"Plant response rating, Johnsongrass",[1]; [32],55
same,"Plant response rating, Johnsongrass",[1]; [14],85
same,"Plant response rating, Johnsongrass",[1]; [33],95
same,"Plant response rating, Johnsongrass",[1]; [34],95
same,"Plant response rating, Bermudagrass","[2]; 62 g ai/ha, preemergence, scale 0 to 100, 0 no effect, 100 complete control",85
same,"Plant response rating, Bermudagrass",[2]; [14],95
same,"Plant response rating, Bermudagrass",[2]; [33],95
same,Bermudagrass plant response rating,[2]; [21],95
same,Morningglory plant response rating,[3]; [22],20
same,"Plant response rating, Morningglory",[3]; [23],15
same,Morningglory plant response rating,[3]; [25],50
same,Morningglory plant response rating,[3]; [31],10
same,"Plant response rating, Velvetleaf",[4]; [32],40
same,"Plant response rating, Velvetleaf",[4]; [33],100
same,"Plant response rating, Velvetleaf",[4]; [34],100
same,Ducksalad plant response rating,"[5]; 62 g ai/ha, scale 0 to 100",0
same,Ducksalad plant response rating,[5]; [27],30
same,Ducksalad plant response rating,[5]; [28],40
same,"Plant response rating, Ducksalad",[5]; [29],45
same,"Plant response rating, Goosegrass",[6]; [32],70
same,"Plant response rating, Goosegrass",[6]; [14],100
same,"Plant response rating, Goosegrass",[6]; [33],100
same,"Plant response rating, Goosegrass",[6]; [34],100
same,Barnyardgrass plant response rating,[7]; [22],70
same,"Plant response rating, Barnyardgrass",[7]; [23],90
same,Barnyardgrass plant response rating,[7]; [25],100
same,Barnyardgrass plant response rating,[7]; [31],95
same,"Plant response rating, Corn",[8]; [33],50
same,"Plant response rating, Soybean",[9]; [32],0
same,"Plant response rating, Soybean",[9]; [33],85
same,"Plant response rating, Soybean",[9]; [34],95
same,Rice plant response rating,"[10]; 62 g ai/ha, scale 0 to 100",0
same,Rice plant response rating,[10]; [27],20
same,Rice plant response rating,[10]; [28],25
same,"Plant response rating, Rice",[10]; [29],55
same,"Plant response rating, Cocklebur",[11]; [32],0
same,"Plant response rating, Cocklebur",[11]; [14],0
same,"Plant response rating, Cocklebur",[11]; [33],10
same,Cocklebur plant response rating,[11]; [30],60
same,"Sedge, Umbrella plant response rating","[12]; 62 g ai/ha, scale 0 to 100",0
same,"Sedge, Umbrella plant response rating",[12]; [27],35
same,"Sedge, Umbrella plant response rating",[12]; [28],70
same,"Plant response rating, Sedge, Umbrella",[12]; [29],75
same,Velvetleaf plant response rating,[13]; [22],55
same,"Plant response rating, Velvetleaf",[13]; [23],65
same,Velvetleaf plant response rating,[13]; [25],100
same,Velvetleaf plant response rating,[13]; [31],50
